Like-named read-outs stand apart in the source and are kept apart here.
Columns and labels:
TLR7 = target: T1, TLR7 (Homo sapiens, UniProt Q9NYK1); assay: IFNα production in PBMCs (marker of TLR7 activation); format: cell-based; settings: PBMCs from 15 healthy donors
T1 construct: expressed in transfected cells; host or cells: HEK293
T1 sequence (Q9NYK1 27-1049): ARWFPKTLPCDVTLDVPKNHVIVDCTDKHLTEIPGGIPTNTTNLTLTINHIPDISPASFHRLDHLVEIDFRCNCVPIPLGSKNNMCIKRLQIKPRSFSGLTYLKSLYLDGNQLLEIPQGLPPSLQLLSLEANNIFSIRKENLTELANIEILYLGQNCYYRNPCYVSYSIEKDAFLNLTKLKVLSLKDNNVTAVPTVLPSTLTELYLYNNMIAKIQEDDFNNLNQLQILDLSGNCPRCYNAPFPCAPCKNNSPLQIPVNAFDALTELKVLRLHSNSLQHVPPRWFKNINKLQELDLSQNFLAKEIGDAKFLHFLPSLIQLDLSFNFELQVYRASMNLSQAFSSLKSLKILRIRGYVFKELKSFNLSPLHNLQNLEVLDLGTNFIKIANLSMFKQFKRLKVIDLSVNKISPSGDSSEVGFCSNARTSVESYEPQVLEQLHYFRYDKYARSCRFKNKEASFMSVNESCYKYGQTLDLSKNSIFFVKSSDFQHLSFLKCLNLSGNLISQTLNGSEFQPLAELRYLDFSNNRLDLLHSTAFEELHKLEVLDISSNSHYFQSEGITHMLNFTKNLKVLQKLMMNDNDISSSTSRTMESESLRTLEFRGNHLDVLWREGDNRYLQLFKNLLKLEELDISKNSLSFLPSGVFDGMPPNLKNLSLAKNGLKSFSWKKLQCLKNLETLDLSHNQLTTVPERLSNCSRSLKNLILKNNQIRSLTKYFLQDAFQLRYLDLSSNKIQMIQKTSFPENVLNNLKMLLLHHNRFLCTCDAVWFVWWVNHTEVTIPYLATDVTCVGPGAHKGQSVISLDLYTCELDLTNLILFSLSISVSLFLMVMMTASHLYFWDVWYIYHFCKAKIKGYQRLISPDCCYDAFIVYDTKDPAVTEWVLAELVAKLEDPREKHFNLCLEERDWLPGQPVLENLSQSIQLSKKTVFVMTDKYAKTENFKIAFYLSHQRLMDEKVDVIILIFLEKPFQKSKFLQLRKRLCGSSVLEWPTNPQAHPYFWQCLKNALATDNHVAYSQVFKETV
Method: The half-maximal effective concentration (EC50) for VTX-2337 activation of TLR8 and TLR7 was assessed in peripheral blood mononuclear cells (PBMCs) from 15 healthy donors and also in HEK293 cells transfected with TLR8 or TLR7 and an NF-κB driven reporter gene. […] Also it was observed that VTX-2337 had no activity on TLR2, TLR3, TLR4, TLR5, TLR6, or TLR9 at concentrations up to 25 μM.

[1] = Phase I clinical study: pharmacokinetics after subcutaneous administration; format: in vivo; settings: human; for DN AUC(0-∞) / DN Cmax: dose normalized; for DN AUC(0-∞) / DN Cmax / AUC(0-inf) / Cmax / half-life / Tmax: first dose; for AUC(0-inf) / Cmax / half-life / Tmax: plasma, sc
Method: Study Procedures: VTX-2337 was administered weekly via subcutaneous injection on Days 1, 8, and 15 of a 28-day dosing cycle for two cycles. Using a modified Fibonacci dose-escalation scheme, successive cohorts received doses ranging from 0.1 mg/m^2 to 3.9 mg/m^2 of VTX-2337. Plasma samples were collected for pharmacokinetic analysis after the first dose of the first treatment cycle and for pharmacodynamic analyses after the first dose of the first and second treatment cycles.
Samples were collected at 0.5, 1, 1.5, 2, 4, 8, and 24 hours after subcutaneous administration of the first dose of VTX-2337 and plasma levels of VTX-2337 were quantified by LC-MS/MS. VTX-2337 was rapidly absorbed into systemic circulation with the mean Tmax occurring between 0.5 and 0.8 hours following dosing. […] Peak plasma levels (Cmax) and total systemic exposure both increased with increasing dose. Dose normalized (DN) values for Cmax and AUC(0-∞) were calculated.

**Q.** For `CCCN(CCC)C(=O)C1=Cc2ccc(-c3ccc(C(=O)N4CCCC4)cc3)cc2N=C(N)C1` [VTX-2337, 2-amino-N,N-dipropyl-8-(4-(pyrrolidine-1-carbonyl)phenyl)-3H-benzo[b]azepine-4-carboxamide], which EC50 (TLR7) is on record?
**A.** > 3.33 µM

**Q.** And the “DN AUC(0-∞)” value ([1]; s.c., 0.1 mg/m^2)?
**A.** 31.2 (ng · hr/mL)/(mg/m^2)

**Q.** And the “DN Cmax” value ([1]; s.c., 0.1 mg/m^2)?
**A.** 15.2 (ng/ml)/(mg/m^2)

**Q.** What about the “DN AUC(0-∞)” value ([1]; s.c., 0.2 mg/m^2) of the same compound?
**A.** 23.7 (ng · hr/mL)/(mg/m^2)

**Q.** And the “DN Cmax” value ([1]; s.c., 0.2 mg/m^2)?
**A.** 9.9 (ng/ml)/(mg/m^2)

**Q.** What about the “DN AUC(0-∞)” value ([1]; s.c., 0.4 mg/m^2) of the same compound?
**A.** 27.4 (ng · hr/mL)/(mg/m^2)

**Q.** And the “DN Cmax” value ([1]; s.c., 0.4 mg/m^2)?
**A.** 16.7 (ng/ml)/(mg/m^2)

**Q.** What about the “DN AUC(0-∞)” value ([1]; s.c., 0.8 mg/m^2) of the same compound?
**A.** 24.0 (ng · hr/mL)/(mg/m^2)

**Q.** What about the “DN Cmax” value ([1]; s.c., 0.8 mg/m^2) of the same compound?
**A.** 7.4 (ng/ml)/(mg/m^2)

**Q.** And the “DN AUC(0-∞)” value ([1]; s.c., 1.3 mg/m^2)?
**A.** 22.7 (ng · hr/mL)/(mg/m^2)

**Q.** What about the “DN Cmax” value ([1]; s.c., 1.3 mg/m^2) of the same compound?
**A.** 8.4 (ng/ml)/(mg/m^2)

**Q.** And the “DN AUC(0-∞)” value ([1]; s.c., 2.0 mg/m^2)?
**A.** 29.6 (ng · hr/mL)/(mg/m^2)

**Q.** What about the “DN Cmax” value ([1]; s.c., 2.0 mg/m^2) of the same compound?
**A.** 7.3 (ng/ml)/(mg/m^2)

**Q.** What about the “DN AUC(0-∞)” value ([1]; s.c., 2.8 mg/m^2) of the same compound?
**A.** 28.7 (ng · hr/mL)/(mg/m^2)

**Q.** What about the “DN Cmax” value ([1]; s.c., 2.8 mg/m^2) of the same compound?
**A.** 7.1 (ng/ml)/(mg/m^2)

**Q.** And the “DN AUC(0-∞)” value ([1]; s.c., 3.9 mg/m^2)?
**A.** 20.8 (ng · hr/mL)/(mg/m^2)

**Q.** And the “DN Cmax” value ([1]; s.c., 3.9 mg/m^2)?
**A.** 5.9 (ng/ml)/(mg/m^2)

**Q.** And the “pharmacokinetics over the dose ranges evaluated” value ([1]; s.c., 0.1-3.9 mg/m^2)?
**A.** appeared to be linear

**Q.** And the AUC(0-inf) ([1]; 0.1 mg/m^2 (~0.0022 mg/kg))?
**A.** 3.12 ng·h/mL

**Q.** And the Cmax ([1]; 0.1 mg/m^2 (~0.0022 mg/kg))?
**A.** 1.52 ng/mL

**Q.** What about the AUC(0-inf) ([1]; 0.2 mg/m^2 (~0.0054 mg/kg)) of the same compound?
**A.** 4.74 ng·h/mL

**Q.** What about the Cmax ([1]; 0.2 mg/m^2 (~0.0054 mg/kg)) of the same compound?
**A.** 1.97 ng/mL

**Q.** What about the AUC(0-inf) ([1]; 0.4 mg/m^2 (~0.011 mg/kg)) of the same compound?
**A.** 10.9 ng·h/mL

**Q.** What about the Cmax ([1]; 0.4 mg/m^2 (~0.011 mg/kg)) of the same compound?
**A.** 6.69 ng/mL

**Q.** And the AUC(0-inf) ([1]; 0.8 mg/m^2 (~0.022 mg/kg))?
**A.** 19.2 ng·h/mL

**Q.** And the Cmax ([1]; 0.8 mg/m^2 (~0.022 mg/kg))?
**A.** 5.93 ng/mL

**Q.** What about the AUC(0-inf) ([1]; 1.3 mg/m^2 (~0.035 mg/kg)) of the same compound?
**A.** 29.5 ng·h/mL

**Q.** And the Cmax ([1]; 1.3 mg/m^2 (~0.035 mg/kg))?
**A.** 10.9 ng/mL

**Q.** What about the AUC(0-inf) ([1]; 2.0 mg/m^2 (~0.054 mg/kg)) of the same compound?
**A.** 59.1 ng·h/mL

**Q.** What about the Cmax ([1]; 2.0 mg/m^2 (~0.054 mg/kg)) of the same compound?
**A.** 14.6 ng/mL

**Q.** And the AUC(0-inf) ([1]; 2.8 mg/m^2 (~0.076 mg/kg))?
**A.** 80.3 ng·h/mL

**Q.** And the Cmax ([1]; 2.8 mg/m^2 (~0.076 mg/kg))?
**A.** 19.9 ng/mL

**Q.** And the AUC(0-inf) ([1]; 3.9 mg/m^2 (~0.105 mg/kg))?
**A.** 81.1 ng·h/mL

**Q.** What about the Cmax ([1]; 3.9 mg/m^2 (~0.105 mg/kg)) of the same compound?
**A.** 23 ng/mL

**Q.** What about the half-life ([1]; s.c., 0.1 mg/m^2 (~0.0022 mg/kg), read-out: T1/2 (converted)) of the same compound?
**A.** 1.7 h

**Q.** What about the Tmax ([1]; s.c., 0.1 mg/m^2 (~0.0022 mg/kg), read-out: Tmax) of the same compound?
**A.** 0.5 h

**Q.** And the half-life ([1]; s.c., 0.2 mg/m^2 (~0.0054 mg/kg), read-out: T1/2 (converted))?
**A.** 3 h

**Q.** What about the Tmax ([1]; s.c., 0.2 mg/m^2 (~0.0054 mg/kg), read-out: Tmax) of the same compound?
**A.** 0.8 h

**Q.** And the half-life ([1]; s.c., 0.4 mg/m^2 (~0.011 mg/kg), read-out: T1/2 (converted))?
**A.** 6.6 h

**Q.** And the Tmax ([1]; s.c., 0.4 mg/m^2 (~0.011 mg/kg), read-out: Tmax)?
**A.** 0.5 h

**Q.** And the half-life ([1]; s.c., 0.8 mg/m^2 (~0.022 mg/kg), read-out: T1/2 (converted))?
**A.** 5.3 h

**Q.** What about the Tmax ([1]; s.c., 0.8 mg/m^2 (~0.022 mg/kg), read-out: Tmax) of the same compound?
**A.** 0.5 h

**Q.** What about the half-life ([1]; s.c., 1.3 mg/m^2 (~0.035 mg/kg), read-out: T1/2 (converted)) of the same compound?
**A.** 5.6 h

**Q.** And the Tmax ([1]; s.c., 1.3 mg/m^2 (~0.035 mg/kg), read-out: Tmax)?
**A.** 0.5 h

**Q.** What about the half-life ([1]; s.c., 2.0 mg/m^2 (~0.054 mg/kg), read-out: T1/2 (converted)) of the same compound?
**A.** 6.7 h

**Q.** What about the Tmax ([1]; s.c., 2.0 mg/m^2 (~0.054 mg/kg), read-out: Tmax) of the same compound?
**A.** 0.5 h

**Q.** What about the half-life ([1]; s.c., 2.8 mg/m^2 (~0.076 mg/kg), read-out: T1/2 (converted)) of the same compound?
**A.** 5.7 h

**Q.** What about the Tmax ([1]; s.c., 2.8 mg/m^2 (~0.076 mg/kg), read-out: Tmax) of the same compound?
**A.** 0.5 h

**Q.** What about the half-life ([1]; s.c., 3.9 mg/m^2 (~0.105 mg/kg), read-out: T1/2 (converted)) of the same compound?
**A.** 5.3 h

**Q.** What about the Tmax ([1]; s.c., 3.9 mg/m^2 (~0.105 mg/kg), read-out: Tmax) of the same compound?
**A.** 0.5 h

**Q.** What about the Tmax ([1]; s.c., across cohorts 0.1-3.9 mg/m^2, read-out: mean Tmax) of the same compound?
**A.** 0.5 to 0.8 h

**Q.** And the half-life ([1]; s.c., across cohorts 0.1-3.9 mg/m^2, read-out: mean half-life (t1/2))?
**A.** 1.7 to 6.7 h
